Literature values in US4279898A, “In vivo inhibitors of cholesterol biosynthesis” (Research Foundation of the City University of New York, priority 1980, dated 1981).

Test system: 5-phosphomevalonate kinase
Conditions: publications by the inventors

In the case of CC(O)(CCCP(=O)(O)O)CC(=O)O (stereo not shown) [5-carboxy-4-hydroxy-4-methylpentyl-1-phosphonic acid], the “inhibition of 5-phosphomevalonate kinase” value is given as “inhibition”.
